Source: patent US20160039825A1 (BIOGEN MA INC., priority 2013, published 2016)

Target: T1, Human ATX protein (Homo sapiens, UniProt Q13822)
T1 construct: made in house
Assay: Autotaxin (ATX) assay, FRET with FS-3 substrate
Format: biochemical
Conditions: upper bound bins (no greater than 100, 250 or 500 nM); FS-3 2 μM, ATX 1.0 μg/mL
Procedure, shortened: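 In-house human ATX (1.0 μg/mL final) was preincubated with compound for 30 min at room temperature in Tris buffer pH 7.4 with NaCl, KCl, CaCl2, MgCl2 and 1 mg/mL fatty acid-free BSA. FS-3 (2 μM final) was added and the plate shaken 2 h at room temperature in the dark. Fluorescence was read at ex 485/em 538 nm.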

Row | SMILES | IC50 [nM]
1 | CCOC(=O)c1cc2n(c1)CCCN(C(=O)OCc1cc(Cl)cc(Cl)c1)C2 [Example 99, 2-(3,5-Dichlorobenzyl) 8-ethyl 4,5-dihydro-1H-pyrrolo[1,2-a][1,4]diazepine-2,8(3H)-dicarboxylate] | ≤ 500
2 | O=C(O)C1CC2CCCC(C1)N2C(=O)c1cc2n(c1)CCCN(C(=O)OCc1cc(Cl)cc(Cl)c1)C2 (stereo not shown) [Example 103] | ≤ 100
3 | CCOC(=O)c1nn2c(c1Cl)CN(C(=O)OCc1cc(C(F)(F)F)cc(C(F)(F)F)c1)CC2 [Example 112, 5-(3,5-Bis(trifluoromethyl)benzyl) 2-ethyl 3-chloro-6,7-dihydropyrazolo[1,5-a]pyrazine-2,5(4H)-dicarboxylate] | ≤ 250
4 | O=C(O)c1nn2c(c1Cl)CN(C(=O)OCc1cc(C(F)(F)F)cc(C(F)(F)F)c1)CC2 [Example 113, 5-(((3,5-Bis(trifluoromethyl)benzyl)oxy)carbonyl)-3-chloro-4,5,6,7-tetrahydropyrazolo[1,5-a]pyrazine-2-carboxylic acid] | ≤ 250
5 | O=C(O)c1cc2n(n1)CCCN(C(=O)CNc1cc(C(F)(F)F)cc(C(F)(F)F)c1)C2 [Example 116, 5-(2-((3,5-Bis(trifluoromethyl)phenyl)amino)acetyl)-5,6,7,8-tetrahydro-4H-pyrazolo[1,5-a][1,4]diazepine-2-carboxylic acid] | ≤ 500
6 | O=C(O)c1cc2n(n1)CCCN(C(=O)COc1cc(C(F)(F)F)cc(C(F)(F)F)c1)C2 [Example 117, 5-(2-(3,5-Bis(trifluoromethyl)phenoxy)acetyl)-5,6,7,8-tetrahydro-4H-pyrazolo[1,5-a][1,4]diazepine-2-carboxylic acid] | ≤ 500
7 | Cc1nnc(-c2cc3n(n2)CCCN(C(=O)OCc2cc(C(F)(F)F)cc(C(F)(F)F)c2)C3)o1 [Example 119, 3,5-Bis(trifluoromethyl)benzyl 2-(5-methyl-1,3,4-oxadiazol-2-yl)-7,8-dihydro-4H-pyrazolo[1,5-a][1,4]diazepine-5(6H)-carboxylate] | ≤ 100
8 | N#Cc1cc2n(n1)CCCN(C(=O)OCc1cc(Cl)cc(Cl)c1)C2 [Example 122, 3,5-Dichlorobenzyl 2-cyano-7,8-dihydro-4H-pyrazolo[1,5-a][1,4]diazepine-5(6H)-carboxylate] | ≤ 250
9 | O=C(OCc1cc(Cl)cc(Cl)c1)N1CCCn2nc(-c3nnn[nH]3)cc2C1 [Example 123, 3,5-Dichlorobenzyl 2-(1H-tetrazol-5-yl)-7,8-dihydro-4H-pyrazolo[1,5-a][1,4]diazepine-5(6H)-carboxylate] | ≤ 250
10 | Cc1cc2n(n1)CCCN(C(=O)OCc1cc(C(F)(F)F)cc(C(F)(F)F)c1)C2 [Example 124, 3,5-Bis(trifluoromethyl)benzyl 2-methyl-7,8-dihydro-4H-pyrazolo[1,5-a][1,4]diazepine-5(6H)-carboxylate] | ≤ 100
11 | N#Cc1cc2n(n1)CCCN(C(=O)OCc1cc(C(F)(F)F)cc(C(F)(F)F)c1)C2 [Example 125, 3,5-Bis(trifluoromethyl)benzyl 2-cyano-7,8-dihydro-4H-pyrazolo[1,5-a][1,4]diazepine-5(6H)-carboxylate] | ≤ 100
12 | O=C(OCc1cc(F)cc(C(F)(F)F)c1)N1CCn2cc(C(F)(F)F)nc2C1 [Example 126, 3-Fluoro-5-(trifluoromethyl)benzyl 2-(trifluoromethyl)-5,6-dihydroimidazo[1,2-a]pyrazine-7(8H)-carboxylate] | ≤ 500
13 | O=C(OCc1cc(C(F)(F)F)cc(C(F)(F)F)c1)N1CCn2cc(C(F)(F)F)nc2C1 [Example 127, 3,5-Bis(trifluoromethyl)benzyl 2-(trifluoromethyl)-5,6-dihydroimidazo[1,2-a]pyrazine-7(8H)-carboxylate] | ≤ 100

More lines, now with the values ahead:

Row | IC50 [nM] | SMILES
14 | ≤ 100 | O=C(O)c1cc2n(c1)CCCN(C(=O)OCc1cc(Cl)cc(Cl)c1)C2 [Example 100, 2-(((3,5-Dichlorobenzyl)oxy)carbonyl)-2,3,4,5-tetrahydro-1H-pyrrolo[1,2-a][1,4]diazepine-8-carboxylic acid]
15 | ≤ 100 | O=C(OCc1cc(Cl)cc(Cl)c1)N1CCCn2nc(C(=O)N3CCC(O)CC3)cc2C1 [Example 101, 3,5-Dichlorobenzyl 2-(4-hydroxypiperidine-1-carbonyl)-7,8-dihydro-4H-pyrazolo[1,5-a][1,4]diazepine-5(6H)-carboxylate]
16 | ≤ 100 | NC(=O)c1cc2n(n1)CCCN(C(=O)OCc1cc(Cl)cc(Cl)c1)C2 [Example 102, 3,5-Dichlorobenzyl 2-carbamoyl-7,8-dihydro-4H-pyrazolo[1,5-a][1,4]diazepine-5(6H)-carboxylate]
17 | ≤ 100 | CCOC(=O)c1cc2n(n1)CCCN(C(=O)OCc1cc(C)cc(C(F)(F)F)c1)C2 [Example 105, 2-Ethyl 5-(3-methyl-5-(trifluoromethyl)benzyl) 7,8-dihydro-4H-pyrazolo[1,5-a][1,4]diazepine-2,5(6H)-dicarboxylate]
18 | ≤ 100 | CCOC(=O)c1cc2n(c1)CCCN(C(=O)OCc1cc(C(F)(F)F)cc(C(F)(F)F)c1)C2 [Example 106, 2-(3,5-Bis(trifluoromethyl)benzyl) 8-ethyl 4,5-dihydro-1H-pyrrolo[1,2-a][1,4]diazepine-2,8(3H)-dicarboxylate]
19 | ≤ 100 | CCOC(=O)c1nn2c(c1Cl)CN(C(=O)OCc1cc(C(F)(F)F)cc(C(F)(F)F)c1)CCC2 [Example 108, 5-(3,5-Bis(trifluoromethyl)benzyl) 2-ethyl 3-chloro-7,8-dihydro-4H-pyrazolo[1,5-a][1.4]diazepine-2,5(6H)-dicarboxylate]
20 | ≤ 100 | Cc1cc(COC(=O)N2CCCn3nc(C(=O)O)cc3C2)cc(C(F)(F)F)c1 [Example 109, 5-(((3-Methyl-5-(trifluoromethyl)benzyl)oxy)carbonyl)-5,6,7,8-tetrahydro-4H-pyrazolo[1,5-a][1,4]diazepine-2-carboxylic acid]
21 | ≤ 100 | O=C(O)c1nn2c(c1Cl)CN(C(=O)OCc1cc(C(F)(F)F)cc(C(F)(F)F)c1)CCC2 [Example 110, 5-(((3,5-Bis(trifluoromethyl)benzyl)oxy)carbonyl)-3-chloro-5,6,7,8-tetrahydro-4H-pyrazolo[1,5-a][1,4]diazepine-2-carboxylic acid]
22 | ≤ 100 | CC1CN(C(=O)OCc2cc(C(F)(F)F)cc(C(F)(F)F)c2)Cc2cc(C(=O)O)nn2C1 (stereo not shown) [Example 111, 5-(((3,5-Bis(trifluoromethyl)benzyl)oxy)carbonyl)-7-methyl-5,6,7,8-tetrahydro-4H-pyrazolo[1,5-a][1,4]diazepine-2-carboxylic acid]
23 | ≤ 100 | CCOC(=O)c1nn2c(c1Br)CN(C(=O)OCc1cc(C(F)(F)F)cc(C(F)(F)F)c1)CCC2 [Example 114, 5-(3,5-Bis(trifluoromethyl)benzyl) 2-ethyl 3-bromo-7,8-dihydro-4H-pyrazolo[1,5-a][1,4]diazepine-2,5(6H)-dicarboxylate]
24 | ≤ 100 | O=C(O)c1nn2c(c1Br)CN(C(=O)OCc1cc(C(F)(F)F)cc(C(F)(F)F)c1)CCC2 [Example 115, 5-(((3,5-Bis(trifluoromethyl)benzyl)oxy)carbonyl)-3-bromo-5,6,7,8-tetrahydro-4H-pyrazolo[1,5-a][1,4]diazepine-2-carboxylic acid]
25 | ≤ 100 | Cc1noc(-c2cc3n(n2)CCCN(C(=O)OCc2cc(C(F)(F)F)cc(C(F)(F)F)c2)C3)n1 [Example 118, 3,5-Bis(trifluoromethyl)benzyl 2-(3-methyl-1,2,4-oxadiazol-5-yl)-7,8-dihydro-4H-pyrazolo[1,5-a][1,4]diazepine-5(6H)-carboxylate]
